Test results: ChEMBL document CHEMBL3885881, “DrugMatrix”

Organism: Rattus norvegicus
Assay: DrugMatrix - Regimen: Daily Repeat
Format: toxicity, organism-based, Sprague-Dawley
Parameters: regimen Daily Repeat, gender Male, age 6-8 weeks
Conditions: in vivo, ip, 0 mg/kg, route intraperitoneal, dose level Control, vehicle 100 % SALINE; for ABSOLUTE BASOPHIL / ABSOLUTE EOSINOPHIL / ABSOLUTE LYMPHOCYTE / ABSOLUTE MONOCYTE / ABSOLUTE SEGMENTED NEUTROPHIL / BASOPHIL / EOSINOPHIL / ERYTHROCYTE COUNT / HEMATOCRIT / HEMOGLOBIN / LEUKOCYTE COUNT / LYMPHOCYTE / MEAN CORPUSCULAR HEMOGLOBIN / MEAN CORPUSCULAR HEMOGLOBIN CONCENTRATION / MEAN CORPUSCULAR VOLUME / MONOCYTE / NEUTROPHIL / PLATELET COUNT: tissue Blood
[1] = 120 h, tissue Plasma, time 5 day
[2] = […], tissue Plasma, time 14 day
[3] = […], tissue Plasma, time 28 day

TRANSPLATIN
ABSOLUTE BASOPHIL (120 h, time 5 day): 32 cells/µL
ABSOLUTE EOSINOPHIL (120 h, time 5 day): 110 cells/µL
ABSOLUTE LYMPHOCYTE (120 h, time 5 day): 6630 cells/µL
ABSOLUTE MONOCYTE (120 h, time 5 day): 140 cells/µL
ABSOLUTE SEGMENTED NEUTROPHIL (120 h, time 5 day): 1170 cells/µL
BASOPHIL (120 h, time 5 day): 0.38%
EOSINOPHIL (120 h, time 5 day): 1.28%
ERYTHROCYTE COUNT (120 h, time 5 day): 7.45 x10E6/uL
HEMATOCRIT (120 h, time 5 day): 45.74%
HEMOGLOBIN (120 h, time 5 day): 14.72 G/DL
LEUKOCYTE COUNT (120 h, time 5 day): 8.11 x10E3/uL
LYMPHOCYTE (120 h, time 5 day): 81.3%
MEAN CORPUSCULAR HEMOGLOBIN (120 h, time 5 day): 19.76 pg
MEAN CORPUSCULAR HEMOGLOBIN CONCENTRATION (120 h, time 5 day): 32.16 G/DL
MEAN CORPUSCULAR VOLUME (120 h, time 5 day): 61.38 fL
MONOCYTE (120 h, time 5 day): 1.76%
NEUTROPHIL (120 h, time 5 day): 14.9%
PLATELET COUNT (120 h, time 5 day): 1322.4 x10E3/uL
ALANINE AMINOTRANSFERASE [1]: 25.8 u/L
ALBUMIN [1]: 3.64 G/DL
ASPARTATE AMINOTRANSFERASE [1]: 81.4 u/L
BLOOD UREA NITROGEN [1]: 14.4 mg/dL
CHOLESTEROL [1]: 69.2 mg/dL
CREATINE PHOSPHOKINASE [1]: 303.2 u/L
CREATININE [1]: 0.56 mg/dL
GLUCOSE [1]: 125.4 mg/dL
LACTATE DEHYDROGENASE [1]: 105.4 u/L
LIPASE [1]: 22.4 u/L
POTASSIUM [1]: 5.52 MEQ/L
SODIUM [1]: 147 MEQ/L
TOTAL BILIRUBIN [1]: 0.2 mg/dL
TOTAL PROTEIN [1]: 6.1 G/DL
URIC ACID [1]: 1.06 mg/dL
ABSOLUTE BASOPHIL ([…], time 14 day): 130 cells/µL
ABSOLUTE EOSINOPHIL ([…], time 14 day): 140 cells/µL
ABSOLUTE LYMPHOCYTE ([…], time 14 day): 13500 cells/µL
ABSOLUTE MONOCYTE ([…], time 14 day): 400 cells/µL
ABSOLUTE SEGMENTED NEUTROPHIL ([…], time 14 day): 2330 cells/µL
BASOPHIL ([…], time 14 day): 0.72%
EOSINOPHIL ([…], time 14 day): 0.86%
ERYTHROCYTE COUNT ([…], time 14 day): 7.74 x10E6/uL
HEMATOCRIT ([…], time 14 day): 45.98%
LEUKOCYTE COUNT ([…], time 14 day): 16.61 x10E3/uL
LYMPHOCYTE ([…], time 14 day): 81.34%
MEAN CORPUSCULAR HEMOGLOBIN ([…], time 14 day): 18 pg
MEAN CORPUSCULAR HEMOGLOBIN CONCENTRATION ([…], time 14 day): 30.22 G/DL
MEAN CORPUSCULAR VOLUME ([…], time 14 day): 59.4 fL
MONOCYTE ([…], time 14 day): 2.46%
NEUTROPHIL ([…], time 14 day): 14.14%
PLATELET COUNT ([…], time 14 day): 1445.5 x10E3/uL
ABSOLUTE BASOPHIL ([…], time 28 day): 91 cells/µL
ABSOLUTE EOSINOPHIL ([…], time 28 day): 110 cells/µL
ABSOLUTE LYMPHOCYTE ([…], time 28 day): 9910 cells/µL
ABSOLUTE MONOCYTE ([…], time 28 day): 210 cells/µL
ABSOLUTE SEGMENTED NEUTROPHIL ([…], time 28 day): 1560 cells/µL
BASOPHIL ([…], time 28 day): 0.77%
EOSINOPHIL ([…], time 28 day): 0.92%
ERYTHROCYTE COUNT ([…], time 28 day): 8.21 x10E6/uL
HEMATOCRIT ([…], time 28 day): 47.53%
HEMOGLOBIN ([…], time 28 day): 15.65 G/DL
LEUKOCYTE COUNT ([…], time 28 day): 11.91 x10E3/uL
LYMPHOCYTE ([…], time 28 day): 83.34%
MEAN CORPUSCULAR HEMOGLOBIN ([…], time 28 day): 19.07 pg
MEAN CORPUSCULAR HEMOGLOBIN CONCENTRATION ([…], time 28 day): 32.93 G/DL
MEAN CORPUSCULAR VOLUME ([…], time 28 day): 57.9 fL
MONOCYTE ([…], time 28 day): 1.68%
NEUTROPHIL ([…], time 28 day): 12.97%
PLATELET COUNT ([…], time 28 day): 1323.8 x10E3/uL
ALANINE AMINOTRANSFERASE [2]: 31.6 u/L
ALBUMIN [2]: 3.66 G/DL
ALKALINE PHOSPHATASE [2]: 228.6 u/L
ASPARTATE AMINOTRANSFERASE [2]: 79.6 u/L
BLOOD UREA NITROGEN [2]: 11.2 mg/dL
CHLORIDE [2]: 107 MEQ/L
CHOLESTEROL [2]: 57 mg/dL
CREATININE [2]: 0.5 mg/dL
GLUCOSE [2]: 124.4 mg/dL
LACTATE DEHYDROGENASE [2]: 106.4 u/L
LIPASE [2]: 24.4 u/L
PHOSPHORUS [2]: 10.52 mg/dL
POTASSIUM [2]: 6.34 MEQ/L
SODIUM [2]: 149.2 MEQ/L
TOTAL BILIRUBIN [2]: 0.2 mg/dL
TOTAL PROTEIN [2]: 6.48 G/DL
URIC ACID [2]: 0.94 mg/dL
ALANINE AMINOTRANSFERASE [3]: 30 u/L
ALBUMIN [3]: 3.71 G/DL
ALKALINE PHOSPHATASE [3]: 186.8 u/L
ASPARTATE AMINOTRANSFERASE [3]: 78.2 u/L
BLOOD UREA NITROGEN [3]: 14.2 mg/dL
CHOLESTEROL [3]: 44.9 mg/dL
CREATINE PHOSPHOKINASE [3]: 334.3 u/L
CREATININE [3]: 0.6 mg/dL
GLUCOSE [3]: 147.2 mg/dL
LACTATE DEHYDROGENASE [3]: 123.1 u/L
LIPASE [3]: 9.6 u/L
PHOSPHORUS [3]: 10.01 mg/dL
POTASSIUM [3]: 6.57 MEQ/L
SODIUM [3]: 149.5 MEQ/L
TOTAL BILIRUBIN [3]: 0.21 mg/dL
TOTAL PROTEIN [3]: 6.66 G/DL
URIC ACID [3]: 1.26 mg/dL
